Source: US20250163057A1, “DCN-1 MODULATING COMPOUNDS AND METHODS OF USE THEREOF” (Cellarity, Inc., priority 2023, published 2025)
Read-outs that look alike come from different tables or passages of the source.

How the values were obtained:
[1] = system: Cullin-3 (CUL3) neddylation; experiment: AlphaLISA assay for Cullin-3 (CUL3) neddylation in TF 1 cells; assay type: cell-based; conditions: Homo sapiens, TF-1, 3 h, 3 hours treatment
How it was run: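 TF 1 cells in unsupplemented IMDM treated with compound concentrations for 3 h, then lysed. CUL3 neddylation detected by AlphaLISA (biotinylated anti-NEDD8, anti-CUL3 acceptor beads overnight, streptavidin donor beads 1 h); normalized to vehicle (0%) and 1 μM DI-1548 (100%), IC50 from Hill fits.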

[2] = biological target: DCN1 (DCUND1) protein PONY domain (Homo sapiens (Human), UniProt Q96GG9); experiment: TR-FRET assay, DCN1 binding with FAM-labeled probe
How it was run: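 Tb-DCN1 PONY domain (E. coli, biotin/streptavidin-Tb); FAM-labelled non-covalent inhibitor probe; TritonX buffer, 200 mM NaCl; 5 nM DCN1 + 20 nM probe or 0.31 nM DCN1 + 900 nM total probe; 0.1% DMSO; TR-FRET read 1, 5, 24 hrs.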

DCN1 protein = DCN1 protein (Homo sapiens (Human), UniProt Q96GG9); experiment: Intact Protein MS Analysis with the RapidFire-TOF System (covalent adduct formation); assay type: binding; conditions: MS Emax; 400 nM DCN1, 3 hours at room temperature
How it was run: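 Tag-cleaved human DCN1 (400 nM) expressed in E. coli, in 25 mM Tris-HCl, 200 mM NaCl, 1 mM DTT, was incubated with 11 compound concentrations for 3 h at room temperature and quenched with 0.2% formic acid. Intact-protein Q-TOF MS with deconvolution detected the compound adduct mass.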

[3] = 24 hr after treatment with compound, read-out: TR FRET IC50 24 hr
[4] = TR FRET IC50 1 hr (nM), 1 hr after treatment with compound
[5] = read-out: TR FRET IC50 1 hr, 1 hr after treatment with compound

DCN1 (DCUND1) protein PONY domain, sequence (Q96GG9 60-248): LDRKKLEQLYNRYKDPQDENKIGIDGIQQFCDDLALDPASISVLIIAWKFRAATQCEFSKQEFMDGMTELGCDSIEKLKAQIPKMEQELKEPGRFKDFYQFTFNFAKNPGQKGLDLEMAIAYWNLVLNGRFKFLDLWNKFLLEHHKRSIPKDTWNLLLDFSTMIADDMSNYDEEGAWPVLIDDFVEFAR
DCN1 protein, sequence (Q96GG9 whole entry): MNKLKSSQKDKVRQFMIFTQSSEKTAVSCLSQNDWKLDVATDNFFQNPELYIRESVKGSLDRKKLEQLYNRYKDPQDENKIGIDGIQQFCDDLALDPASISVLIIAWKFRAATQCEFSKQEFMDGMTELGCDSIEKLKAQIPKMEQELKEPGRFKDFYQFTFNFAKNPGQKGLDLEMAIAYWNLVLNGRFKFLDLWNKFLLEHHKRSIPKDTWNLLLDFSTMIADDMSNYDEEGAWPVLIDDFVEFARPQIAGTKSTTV

| SMILES | IC50 [1] | IC50 [2, 3] | IC50 [2, 4] | % Adduct Formation (DCN1 protein) | IC50 [2, 5] |
| --- | --- | --- | --- | --- | --- |
| CCN1C(=O)[C@@H](NC(=O)c2cccc(C(F)(F)F)c2)[C@@H](c2ccc(F)cc2)c2c(C(=O)N3CCC[C@H]3C#N)nn(-c3cccc(OCCCN(C)C4COC4)c3)c21 [Compound I-335] | ≤ 100 nM | ≤ 200 nM | 1000 to 3000 nM | +++ (MS Emax % adduct formation greater than 80.0 and less than or equal to 100.0) |  |
| CCN1C(=O)[C@@H](NC(=O)c2cccc(C(F)(F)F)c2)[C@@H](c2ccc(F)cc2)c2c(C(=O)N3CCC[C@H]3C#N)nn(-c3cccc(OCCCN4CCC5(CC4)COC5)c3)c21 [Compound I-336] | ≤ 100 nM | ≤ 200 nM |  | +++ (MS Emax % adduct formation greater than 80.0 and less than or equal to 100.0) | ≤ 200 nM |
| CCN1C(=O)[C@@H](NC(=O)c2cccc(C(F)(F)F)c2)[C@@H](c2ccc(F)cc2)c2c(C(=O)N3CCC[C@H]3C#N)nn(-c3cccc(OCCCN4CCN(C5COC5)CC4)c3)c21 [Compound I-337] | ≤ 100 nM | ≤ 200 nM |  | +++ (MS Emax % adduct formation greater than 80.0 and less than or equal to 100.0) | ≤ 200 nM |
| CCN1C(=O)[C@@H](NC(=O)c2cccc(C(F)(F)F)c2)[C@@H](c2ccc(F)cc2)c2c(C(=O)N3CCC[C@H]3C#N)nn(-c3cccc(OCCCN4CCOCC4)c3)c21 [Compound I-338] | ≤ 100 nM | ≤ 200 nM | 1000 to 3000 nM | +++ (MS Emax % adduct formation greater than 80.0 and less than or equal to 100.0) |  |
| CCN1C(=O)[C@@H](NC(=O)c2cccc(C(F)(F)F)c2)[C@@H](c2ccc(F)cc2)c2c(C(=O)N3CCC[C@H]3C#N)nn(-c3cccc(OCCN4CCOCC4)c3)c21 [Compound I-339] | ≤ 100 nM | ≤ 200 nM | 1000 to 3000 nM | +++ (MS Emax % adduct formation greater than 80.0 and less than or equal to 100.0) |  |
| CCN1C(=O)[C@@H](NC(=O)c2cccc(C(F)(F)F)c2)[C@@H](c2ccc(F)cc2)c2c(C(=O)N3CCC[C@H]3C#N)nn(-c3cccc(OCCN4CCN(C5COC5)CC4)c3)c21 [Compound I-340] | ≤ 100 nM | ≤ 200 nM |  | +++ (MS Emax % adduct formation greater than 80.0 and less than or equal to 100.0) | ≤ 200 nM |
| CCN1C(=O)[C@@H](NC(=O)c2cccc(C(F)(F)F)c2)[C@@H](c2ccc(F)cc2)c2c(C(=O)N3CCC[C@H]3C#N)nn(-c3cccc(OCCN4CCC5(CC4)COC5)c3)c21 [Compound I-341] | ≤ 100 nM | ≤ 200 nM |  | +++ (MS Emax % adduct formation greater than 80.0 and less than or equal to 100.0) | ≤ 200 nM |
| CCN1C(=O)[C@@H](NC(=O)c2cccc(C(F)(F)F)c2)[C@@H](c2ccc(F)cc2)c2c(C(=O)N3CCC[C@H]3C#N)nn(-c3cccc(OCCN4CC5(COC5)C4)c3)c21 [Compound I-342] | ≤ 100 nM | ≤ 200 nM |  | +++ (MS Emax % adduct formation greater than 80.0 and less than or equal to 100.0) | ≤ 200 nM |
| CCN1C(=O)[C@@H](NC(=O)c2ccn(C(F)(F)F)n2)[C@@H](c2ccc(F)cc2)c2c(C(=O)N3CCC[C@H]3C#N)nn(-c3ccccc3)c21 [Compound I-343, N-((4S,5S)-3-((S)-2-cyanopyrrolidine-1-carbonyl)-7-ethyl-4-(4-fluorophenyl)-6-oxo-1-phenyl-4,5,6,7-tetrahydro-1H-pyrazolo[3,4-b]pyridin-5-yl)-1-(trifluoromethyl)-1H-pyrazole-3-carboxamide] | ≤ 100 nM | ≤ 200 nM | 1000 to 3000 nM | ++ (MS Emax % adduct formation greater than 30.0 and less than or equal to 80.0) |  |
| CCN1C(=O)[C@@H](NC(=O)c2ccn(C(F)(F)F)n2)[C@@H](c2ccc(F)cc2)c2c(C(=O)N3[C@H](C#N)C[C@H]4C[C@H]43)nn(-c3ccccc3)c21 [Compound I-344] | ≤ 100 nM | ≤ 200 nM | 200 to 1000 nM | ++ (MS Emax % adduct formation greater than 30.0 and less than or equal to 80.0) |  |
| CCN1C(=O)[C@@H](NC(=O)c2ccn(C(F)(F)F)n2)[C@@H](c2ccc(F)cc2)c2c(C(=O)N3CCOC[C@H]3C#N)nn(-c3ccccc3)c21 [Compound I-345] | ≤ 100 nM | ≤ 200 nM | 200 to 1000 nM | +++ (MS Emax % adduct formation greater than 80.0 and less than or equal to 100.0) |  |
| CCN1C(=O)[C@@H](NC(=O)c2ccn(C(F)(F)F)n2)[C@@H](c2ccc(F)cc2)c2c(C(=O)N3CCNC[C@H]3C#N)nn(-c3ccccc3)c21 [Compound I-346, N-((4S,5S)-3-((S)-2-cyanopiperazine-1-carbonyl)-7-ethyl-4-(4-fluorophenyl)-6-oxo-1-phenyl-4,5,6,7-tetrahydro-1H-pyrazolo[3,4-b]pyridin-5-yl)-1-(trifluoromethyl)-1H-pyrazole-3-carboxamide] | ≤ 100 nM | ≤ 200 nM | 200 to 1000 nM | +++ (MS Emax % adduct formation greater than 80.0 and less than or equal to 100.0) |  |
| CCN1C(=O)[C@@H](NC(=O)c2cccc(C(F)(F)F)c2)[C@@H](c2ccc(F)cc2)c2c(C(=O)N3CCC[C@H]3C#N)nn(-c3cccc(OCCN(C)C4COC4)c3)c21 [Compound I-347] | ≤ 100 nM | ≤ 200 nM | 200 to 1000 nM | +++ (MS Emax % adduct formation greater than 80.0 and less than or equal to 100.0) |  |
| CCN1C(=O)[C@@H](NC(=O)c2cccc(C(F)(F)F)c2)[C@@H](c2ccc(F)cc2)c2c(C(=O)N(CC#N)C3CC3)nn(C3CCOCC3)c21 [Compound I-351] | ≤ 100 nM | ≤ 200 nM |  | +++ (MS Emax % adduct formation greater than 80.0 and less than or equal to 100.0) | ≤ 200 nM |
| CCN1C(=O)[C@@H](NC(=O)c2cccc(C(F)(F)F)c2)[C@@H](c2ccc(F)cc2)c2c(C(=O)N(CC#N)CCN(C)C)nn(C3CCOCC3)c21 [Compound I-352] | ≤ 100 nM | ≤ 200 nM |  | +++ (MS Emax % adduct formation greater than 80.0 and less than or equal to 100.0) | ≤ 200 nM |
| CCN1C(=O)[C@@H](NC(=O)c2cccc(C(F)(F)F)c2)[C@@H](c2ccc(F)cc2)c2c(C(=O)N(CC#N)CCCN(C)C)nn(C3CCOCC3)c21 [Compound I-353] | ≤ 100 nM | ≤ 200 nM |  | +++ (MS Emax % adduct formation greater than 80.0 and less than or equal to 100.0) | ≤ 200 nM |
| CCN1C(=O)[C@@H](NC(=O)c2cccc(C(F)(F)F)c2)[C@@H](c2ccc(F)cc2)c2c(C(=O)N3CCC[C@H]3C#N)nn(C3CC3)c21 [Compound I-354] | ≤ 100 nM | ≤ 200 nM |  | ++ (MS Emax % adduct formation greater than 30.0 and less than or equal to 80.0) | ≤ 200 nM |
| CCN1C(=O)[C@@H](NC(=O)c2cccc(C(F)(F)F)c2)[C@@H](c2ccc(F)cc2)c2c(C(=O)N(CC#N)C3CC3)nn(C3CC3)c21 [Compound I-355] | ≤ 100 nM | ≤ 200 nM |  | +++ (MS Emax % adduct formation greater than 80.0 and less than or equal to 100.0) | ≤ 200 nM |
| CCCn1nc(C(=O)N(CC#N)C2CC2)c2c1N(CC)C(=O)[C@@H](NC(=O)c1cccc(C(F)(F)F)c1)[C@H]2c1ccc(F)cc1 [Compound I-356] | ≤ 100 nM | ≤ 200 nM | 200 to 1000 nM | +++ (MS Emax % adduct formation greater than 80.0 and less than or equal to 100.0) |  |
